The source of these data is patent US8933102B2, “Pyrrolidine derived β3 adrenergic receptor agonists” (Merck Sharp & Dohme Corp., priority 2010, dated 2015).

T1 sequence (P13945 whole entry): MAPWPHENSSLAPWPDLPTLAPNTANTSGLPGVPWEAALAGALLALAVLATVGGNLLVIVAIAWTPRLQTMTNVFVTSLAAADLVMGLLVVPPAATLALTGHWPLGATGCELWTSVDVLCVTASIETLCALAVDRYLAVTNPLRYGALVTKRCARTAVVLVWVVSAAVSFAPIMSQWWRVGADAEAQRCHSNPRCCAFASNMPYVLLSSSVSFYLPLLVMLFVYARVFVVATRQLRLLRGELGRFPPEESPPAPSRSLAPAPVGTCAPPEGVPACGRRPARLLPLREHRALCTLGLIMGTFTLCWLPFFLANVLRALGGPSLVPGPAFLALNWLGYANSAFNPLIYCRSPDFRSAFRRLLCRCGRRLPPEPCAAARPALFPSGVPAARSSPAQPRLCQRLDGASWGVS

The first experiment addresses T1, human β3 adrenergic receptor (Homo sapiens, UniProt P13945).
T1 construct: expressed in transfected cells; host or cells: Chinese hamster ovary (CHO) cells, stably transfected
Description: Beta-3 agonist in vitro functional assay (cAMP production, LANCE, CHO cells stably transfected with cloned β3 receptor). The class given is cell-based. The following applies: cAMP production in CHO cells expressing human β3 AR; ranges as class symbols; read-out: Human β3 agonist functional activity. The method, then:
Functional Assay: cAMP production in response to ligand is measured according to Barton, et al. (1991, Agonist-induced desensitization of D2 dopamine receptors in human Y-79 retinoblastoma cells. Mol. Pharmacol. […]) modified as follows. cAMP production is measured using a homogenous time-resolved fluorescence resonance energy transfer immunoassay (LANCE™, Perkin Elmer) according to the manufacture's instructions. Chinese hamster ovary (CHO) cells, stably transfected with the cloned β-adrenergic receptor (β1, β2 or β3) are harvested after 3 days of subculturing. Harvesting of cells is done with Enzyme-free Dissociation Media (Specialty Media). Cells are then counted and resuspended in assay buffer (Hank's Balanced salt solution supplemented with 5 mM HEPES, […]) containing a phosphodiesterase inhibitor (IBMX, 0.6 mM). The reaction is initiated by mixing 6,000 cells in 6 μL with 6 μL Alexa Fluor labeled cAMP antibody (LANCE™ kit) which is then added to an assay well containing 12 μL of compound (diluted in assay buffer to 2× final concentration). The reaction proceeds for 30 minutes at RT and is terminated by the addition of 24 ul detection buffer (LANCE™ kit). The assay plate is then incubated for 1 h at RT and time-resolved fluorescence measured on a Perkin Elmer Envision reader or equivalent. The unknown cAMP level is determined by comparing fluorescence levels to a cAMP standard curve.
The non-selective, full agonist 13-adrenergic ligand isoproterenol is used at all three receptors to determine maximal stimulation. The human β3 adrenergic receptor (AR) selective ligand (S)—N-[4-[2-[[2-hydroxy-3-(4-hydroxyphenoxy)propyl]amino]ethyl]-phenyl]-4-iodobenzenesulfonamide is used as a control in all assays. Isoproterenol is titrated at a final concentration in the assay of 10^-10 M to 10-5 and the selective ligand (S)—N-[4-[2-[[2-hydroxy-3-(4-hydroxyphenoxy)propyl]amino]ethyl]phenyl]-4-iodobenzenesulfonamide is titrated at the β3 receptor at concentration of 10^-10 M to 10^-5 M. Unknown ligands are titrated at all 3 β-adrenergic receptor subtypes at a final concentration in the assay of 10^-10 M to 10^-5 M to determine the EC50. The EC50 is defined as the concentration of compound that gives 50% activation of its own maximum. Data are analyzed using Microsoft Excel and Graphpad Prism or an internally developed data analysis software package.
For orientation: cAMP levels reflect the balance of adenylyl cyclase and phosphodiesterase activity.
With `Cn1nnnc1C1CCN(C(=O)c2ccc(C[C@@H]3CC[C@H]([C@H](O)COc4ccccc4)N3)cc2)CC1` [Example 4], the EC50 was less than 1 nM.
For the molecule `O=C(c1ccc(C[C@@H]2CC[C@H]([C@H](O)COc3ccccc3)N2)cc1)N1CCN(Cc2ccncn2)CC1` [Example 6], the EC50 fell in the range of 1 to 10 nM.
As for `O=C(c1ccc(C[C@@H]2CC[C@H]([C@H](O)COc3ccccc3)N2)cc1)N1CCC(n2ccnn2)CC1` [Example 3], the EC50 was 11 to 100 nM.
Same read-out and setting: for `O=C(c1ccc(C[C@@H]2CC[C@H]([C@H](O)COc3ccccc3)N2)cc1)N1CCC(n2nccn2)CC1` [Example 2] the value was 1 to 10 nM; for `O=C(c1ccc(C[C@@H]2CC[C@H]([C@H](O)COc3ccccc3)N2)cc1)N1C[C@@H]2[C@H](C1)[C@H]2n1cnnn1` [Example 5], less than 1 nM.

The experiment is the same for the next values; noted with them: cAMP production in CHO cells expressing human β3 AR; read-out: human Beta-3 agonist functional activity.
In the case of `O=C(c1ccc(C[C@@H]2CC[C@H]([C@H](O)COc3ccccc3)N2)cc1)N1CCC(n2cccn2)CC1` [Example 1], the EC50 lay within 1 to 10 nM.
